Starred links: 1 amine or outer side, 2 acyl side, 3 side chain; linkers in the order of their positions; H or OH if unused. Positions of bridges follow the written chain, without caps; N, C: chain ends. Non-standard residues stand in square brackets, D forms with d. Residues, ends and D or L forms follow the SMILES beside them. *: point of attachment. Cys(O)(CH2CO) = O=C([C@H](C[S+]([O-])CC(=O)[*:3])N[*:1])[*:2]; Bip = N[C@@H](Cc1ccc(-c2ccccc2)cc1)C(=O)O; NMeF = CN[C@@H](Cc1ccccc1)C(=O)O; NMeI = CC[C@H](C)[C@H](NC)C(=O)O; NMeL = CN[C@@H](CC(C)C)C(=O)O; NMeA = CN[C@@H](C)C(=O)O; Piperidide = C1CCN(*)CC1; Sar = CNCC(=O)O; tBu = CC(C)(C)*
What was measured:
Assay type in all cases: in vitro ADME
[1] = Metabolic stability in mouse hepatic microsome; settings: for Hepatic Microsome CLh, int (Mouse) In the absence of NADPH: without NADPH; for microsomal CLint at 1 uM: male, liver microsomes, pH 7.4; for Mouse Hepatic Microsome CLh, int: Table 9, thioether versus sulfoxide
Method: (§1) The obtained compound was metabolically reacted at a concentration of 2 uM with mouse serum (male/female mixed, Valley Biomedical, USA) (adjusted to pH 7.4 with 33.5 mM HEPES buffer) for two hours. Deproteinization treatment with acetonitrile was provided over time, the amount of the remaining unchanged compound was analyzed using LC/MS, and the metabolic half-life (t1/2) was calculated. A microsome solution prepared at 0.5 mg protein/mL from mouse hepatic microsome and small intestinal microsome (male, XENOTECH, USA) using 100 mM phosphate buffer (pH 7.4) was metabolically reacted with the compound at a concentration of 1 uM for 30 minutes in the presence or absence of NADPH. Deproteinization treatment with acetonitrile was provided over time, the amount of the remaining unchanged compound was analyzed using LC/MS, and the hepatic-intrinsic clearance (CLh, int) and the small intestinal-intrinsic clearance (CLg, int) were calculated (Table 7). Such peptides were sufficiently slowly metabolized by hydrolysis with peptidases or the like in mouse sera and microsomes, contrary to peptides composed of natural amino acids having low lipophilicity.
(§2) Metabolic stability tests were carried out in the same manner as shown in 2-1.

[2] = Serum stability test in mouse serum; settings: both sexes, pH 7.4, two hours, read-out: Serum stability t1/2 (Mouse)
Method: as §1

[3] = Metabolic stability in mouse small intestinal microsome; settings: for Intestinal Microsome CLg, int Mouse: Table 8, mouse; for oxidative metabolic rate relative to the parent thioether, small intestinal microsomes: compared with Compound P-112
Method: as §1, §2

[4] = Metabolic stability in human hepatic microsome; settings: for microsomal CLint at 1 uM: pH 7.4, Hepatic Microsome CLhint Human
[5] = 0.5 mg protein/mL, 1 uM, 30 minutes
[6] = mouse, 0.5 mg protein/mL, 1 uM, 30 minutes, with NADPH, read-out: Hepatic Microsome CLh, int (Mouse) In the presence of NADPH

| SMILES | Hepatic Microsome CLh, int (Mouse) In the absence of NADPH [1, 5] [ul/min/mg Protein] | microsomal CLint at 1 uM [1, 6] [µL/min/mg] | half-life at 2 uM [2] [h] | Intestinal Microsome CLg, int Mouse [3] [ul/min/mg Protein] | further results |
| --- | --- | --- | --- | --- | --- |
| CC(C)C[C@H]1C(=O)N[C@@H](COC(C)(C)C)C(=O)N[C@H](C(=O)N2CCCCC2)CSCC(=O)N(C)[C@@H](Cc2ccccc2)C(=O)N(C)[C@@H](C)C(=O)N[C@@H](Cc2ccccc2)C(=O)N(C)[C@@H](CC(C)C)C(=O)N[C@@H]([C@@H](C)O)C(=O)N(C)CC(=O)N1C [Compound P-110, Ac*-MePhe-MeAla-Phe-MeLeu-Thr-MeGly-MeLeu-Ser(tBu)-Cys*-piperidine] ({CH2CO}-[NMeF][NMeA]F[NMeL]T[Sar][NMeL]S(tBu)C-Piperidide; thioether N-9) | 6.1 | 163 | > 60 | – | – |
| CC(C)C[C@H]1C(=O)N[C@@H](COC(C)(C)C)C(=O)N[C@H](C(=O)N2CCCCC2)CSCC(=O)N(C)[C@@H](C)C(=O)N[C@@H](Cc2ccccc2)C(=O)N(C)[C@@H](CC(C)C)C(=O)N[C@@H]([C@@H](C)O)C(=O)N(C)CC(=O)N1C [Compound P-106, Ac*-MeAla-Phe-MeLeu-Thr-MeGly-MeLeu-Ser(tBu)-Cys*-piperidine] ({CH2CO}-[NMeA]F[NMeL]T[Sar][NMeL]S(tBu)C-Piperidide; thioether N-8) | 1.9 | 151 | > 60 | – | – |
| CC[C@H](C)[C@H]1C(=O)N[C@H](C(=O)N2CCCCC2)CSCC(=O)N(C)[C@@H](Cc2ccccc2)C(=O)N(C)[C@@H](CC(C)C)C(=O)N[C@@H]([C@@H](C)O)C(=O)N(C)CC(=O)N(C)[C@@H](CC(C)C)C(=O)N[C@@H](COC(C)(C)C)C(=O)N1C [Compound P-103, Ac*-MePhe-MeLeu-Thr-MeGly-MeLeu-Ser(tBu)-MeIle-Cys*-piperidine] ({CH2CO}-[NMeF][NMeL]T[Sar][NMeL]S(tBu)[NMeI]C-Piperidide; thioether N-8) | 11.1 | 63 | > 60 | 66.3 | Hepatic Microsome CLhint Mouse ([1]; Table 8, mouse): 63.0 ul/min/mg Protein; Mouse Hepatic Microsome CLh, int [1]: 63 ul/min/mg Protein; Hepatic microsome CLhint (Human) In the absence of NADPH [4]: 3 ul/min/mg Protein; Hepatic microsome CLhint (Human) In the presence of NADPH [4]: 221 ul/min/mg Protein; microsomal CLint at 1 uM ([4]; human, microsomes): 221 µL/min/mg |
| CC(C)C[C@H]1C(=O)N[C@@H](COC(C)(C)C)C(=O)N[C@H](C(=O)N2CCCCC2)CSCC(=O)N(C)[C@@H](C)C(=O)N(C)[C@@H](Cc2ccccc2)C(=O)N(C)[C@@H](CC(C)C)C(=O)N[C@@H]([C@@H](C)O)C(=O)N(C)CC(=O)N1C [Compound P-102, Ac*-MeAla-MePhe-MeLeu-Thr-MeGly-MeLeu-Ser(tBu)-Cys*-piperidine] ({CH2CO}-[NMeA][NMeF][NMeL]T[Sar][NMeL]S(tBu)C-Piperidide; thioether N-8) | 0 | 55.1 | > 60 | 79.0 | Hepatic Microsome CLhint Mouse ([1]; Table 8, mouse): 55.1 ul/min/mg Protein; Hepatic microsome CLhint (Human) In the absence of NADPH [4]: 3 ul/min/mg Protein; Hepatic microsome CLhint (Human) In the presence of NADPH [4]: 124 ul/min/mg Protein; microsomal CLint at 1 uM ([4]; human, microsomes): 124 µL/min/mg |
| CC[C@H](C)[C@H]1C(=O)N[C@H](C(=O)N2CCCCC2)CS(=O)(=O)CC(=O)N(C)[C@@H](C)C(=O)N(C)[C@@H](Cc2ccccc2)C(=O)N(C)[C@@H](CC(C)C)C(=O)N[C@@H]([C@@H](C)O)C(=O)N(C)CC(=O)N(C)[C@@H](CC(C)C)C(=O)N[C@@H](COC(C)(C)C)C(=O)N1C [Compound P-115, (5S,8S,11S,14S,20S,23S,26S,29R)-8-benzyl-23-(tert-butoxymethyl)-26-((S)-sec-butyl)-14-((R)-1-hydroxyethyl)-11,20-diisobutyl-4,5,7,10,16,19,25-heptamethyl-29-(piperidine-1-carbonyl)-1-thia-4,7,10,13,16,19,22,25,28-nonaazacyclotriacontane-3,6,9,12,15,18,21,24,27-nonone 1,1-dioxide] | – | – | – | 21.8 | Hepatic Microsome CLhint Mouse ([1]; Table 8, mouse): 42.1 ul/min/mg Protein; Mouse Hepatic Microsome CLh, int [1]: 12.1 ul/min/mg Protein; oxidative metabolic rate relative to the parent thioether, small intestinal microsomes [3]: about 0.5 times; Hepatic Microsome CLhint Human ([4]; human, microsomes, 1 uM, pH 7.4): 61.6 ul/min/mg Protein |
| CC[C@H](C)[C@H]1C(=O)N[C@H](C(=O)N2CCCCC2)CSCC(=O)N[C@@H](Cc2ccccc2)C(=O)N(C)[C@@H](CC(C)C)C(=O)N[C@@H]([C@@H](C)O)C(=O)N(C)CC(=O)N(C)[C@@H](CC(C)C)C(=O)N[C@@H](COC(C)(C)C)C(=O)N1C [Compound P-107, Ac*-Phe-MeLeu-Thr-MeGly-MeLeu-Ser(tBu)-MeIle-Cys*-piperidine] ({CH2CO}-F[NMeL]T[Sar][NMeL]S(tBu)[NMeI]C-Piperidide; thioether N-8) | 10.1 | 111 | > 60 | – | – |
| CC[C@H](C)[C@H]1C(=O)N[C@@H](Cc2ccc(-c3ccccc3)cc2)C(=O)N[C@H](C(=O)N2CCCCC2)CSCC(=O)N(C)[C@@H](CC(C)C)C(=O)N[C@@H]([C@@H](C)O)C(=O)N(C)CC(=O)N(C)[C@@H](CC(C)C)C(=O)N[C@@H](CO)C(=O)N1C [Compound P-104, Ac*-MeLeu-Thr-MeGly-MeLeu-Ser-MeIle-Bip-Cys*-piperidine] ({CH2CO}-[NMeL]T[Sar][NMeL]S[NMeI][Bip]C-Piperidide; thioether N-8) | 6.9 | 106 | > 60 | – | – |
| CC[C@H](C)[C@H]1C(=O)N[C@H](C(=O)N2CCCCC2)C[S+]([O-])CC(=O)N(C)[C@@H](C)C(=O)N(C)[C@@H](Cc2ccccc2)C(=O)N(C)[C@@H](CC(C)C)C(=O)N[C@@H]([C@@H](C)O)C(=O)N(C)CC(=O)N(C)[C@@H](CC(C)C)C(=O)N[C@@H](COC(C)(C)C)C(=O)N1C (stereo partly drawn) [Compound P-114, (5S,8S,11S,14S,20S,23S,26S,29R)-8-benzyl-23-(tert-butoxymethyl)-26-((S)-sec-butyl)-14-((R)-1-hydroxyethyl)-11,20-diisobutyl-4,5,7,10,16,19,25-heptamethyl-29-(piperidine-1-carbonyl)-1-thia-4,7,10,13,16,19,22,25,28-nonaazacyclotriacontane-3,6,9,12,15,18,21,24,27-nonone 1-oxide] ([NMeA][NMeF][NMeL]T[Sar][NMeL]S(tBu)[NMeI][Cys(O)(CH2CO)]-Piperidide; lactam N-9) | – | – | – | 9.1 | oxidative metabolic rate relative to the parent thioether, mouse hepatic microsomes ([1]; compared with Compound P-112): 0.6 times; microsomal CLint at 1 uM ([1]; Table 8, mouse, read-out: Hepatic Microsome CLhint Mouse): 33.7 µL/min/mg; oxidative metabolic rate relative to the parent thioether, small intestinal microsomes [3]: 0.2 times; oxidative metabolic rate relative to the parent thioether, human hepatic microsomes [4]: about 0.3 times; microsomal CLint at 1 uM ([4]; human, microsomes): 35.3 µL/min/mg |
| CC[C@H](C)[C@H]1C(=O)N[C@H](C(=O)N2CCCCC2)CSCC(=O)N(C)[C@@H](C)C(=O)N[C@@H](Cc2ccccc2)C(=O)N(C)[C@@H](CC(C)C)C(=O)N[C@@H]([C@@H](C)O)C(=O)N(C)CC(=O)N(C)[C@@H](CC(C)C)C(=O)N[C@@H](COC(C)(C)C)C(=O)N1C [Compound P-111, Ac*-MeAla-Phe-MeLeu-Thr-MeGly-MeLeu-Ser(tBu)-MeIle-Cys*-piperidine] ({CH2CO}-[NMeA]F[NMeL]T[Sar][NMeL]S(tBu)[NMeI]C-Piperidide; thioether N-9) | 0 | 76.4 | > 60 | – | Mouse Hepatic Microsome CLh, int [1]: 76.4 ul/min/mg Protein |
| CC(C)C[C@H]1C(=O)N[C@H](C(=O)N2CCCCC2)CSCC(=O)N(C)[C@@H](Cc2ccccc2)C(=O)N(C)[C@@H](C)C(=O)N[C@@H](Cc2ccccc2)C(=O)N(C)[C@@H](CC(C)C)C(=O)N[C@@H]([C@@H](C)O)C(=O)N(C)CC(=O)N1C [Compound P-105, Ac*-MePhe-MeAla-Phe-MeLeu-Thr-MeGly-MeLeu-Cys*-piperidine] ({CH2CO}-[NMeF][NMeA]F[NMeL]T[Sar][NMeL]C-Piperidide; thioether N-8) | 5.1 | 278 | > 60 | – | – |
| CC(C)C[C@H]1C(=O)N[C@@H](COC(C)(C)C)C(=O)N[C@H](C(=O)N2CCCCC2)CSCC(=O)N(C)[C@@H](Cc2ccccc2)C(=O)N(C)[C@@H](C)C(=O)N(C)[C@@H](Cc2ccccc2)C(=O)N(C)[C@@H](CC(C)C)C(=O)N[C@@H]([C@@H](C)O)C(=O)N(C)CC(=O)N1C [Compound P-108, Ac*-MePhe-MeAla-MePhe-MeLeu-Thr-MeGly-MeLeu-Ser(tBu)-Cys*-piperidine] ({CH2CO}-[NMeF][NMeA][NMeF][NMeL]T[Sar][NMeL]S(tBu)C-Piperidide; thioether N-9) | 5.2 | 72.3 | > 60 | – | – |

Reference: US9409952B2, “Peptide-compound cyclization method” (Chugai Seiyaku Kabushiki Kaisha, priority 2011, dated 2016)
